# Source: patent US20250120924A1, “COMPOSITIONS OF TAURINE AND MALIC ACID AND METHODS OF MAKING THE COMPOSITIONS” (NutriScience Innovations LLC, priority 2023, published 2025)
# System: Wild-type nematodes
# Test: Nematode lifespan/survival in microfluidic chips
# Type: in vivo
# Settings: versus control, FIG. 4
# Protocol: EXAMPLE 8—Animal Studies: A nematode animal model was used to evaluate lifespan/survival and energy/activity. Wild-type nematodes were loaded into microfluidic chips and were fed […] E. coli OP50 in NGM buffer food source. The methods have been previously described. Nematode lifespan was measured by survival at standard 18 days, while nematode activity was measured at an optimum 15 days using a visual score. Dosing of 2:1 taurine to malic acid molar ratio composition (composition #4, Example 1) was made using the methodology described previously was at 200 micrograms/ml/day, with the solid composition being dissolved in the aqueous feed. This is equivalent to a human dose of 5 grams per day for these animals. The 5 gram per day human dose equivalent represents a dose of 3.26 grams of taurine and 1.74 grams of malic acid (2:1 molar ratio). The results were compared with taurine alone (human equivalent dose 3.26 grams), and malic acid alone (1.74 grams malic acid).
# Eighteen days is the typical survival time for nematodes. Eighteen days may be considered “old-age” for these animals. […] This unexpected synergistic effect has not been previously observed. […] Specific energy/activity levels of the neamtodes was measured at an optimum 15 days of life (which may be considered “middle-age”).
SMILES,"nematode survival at 18 days (malic acid alone, human equivalent dose 1.74 grams)","nematode survival at 18 days (taurine alone, human equivalent dose 3.26 grams)"
O=C(O)CC(O)C(=O)O (centres unmarked) [malic acid],did not improve survival times versus control,–
"NCCS(=O)(=O)O [taurine, 2-aminoethanesulfonic acid]",–,did not improve survival times versus control
